Laboratory results as given in article PMC5271370, “A High-Content Assay Enables the Automated Screening and Identification of Small Molecules with Specific ALDH1A1-Inhibitory Activity” (PLoS ONE, 2017).
Like-named read-outs stand apart in the source and are kept apart here.

Key:
Human ALDH1A1 = target: T1, Human ALDH1A1 (Homo sapiens, UniProt P00352); assay: 1,536-well enzymatic assay (NADH fluorescence), ALDH1A1; assay type: biochemical
T1 construct: made in house
T1 sequence (P00352 1-501): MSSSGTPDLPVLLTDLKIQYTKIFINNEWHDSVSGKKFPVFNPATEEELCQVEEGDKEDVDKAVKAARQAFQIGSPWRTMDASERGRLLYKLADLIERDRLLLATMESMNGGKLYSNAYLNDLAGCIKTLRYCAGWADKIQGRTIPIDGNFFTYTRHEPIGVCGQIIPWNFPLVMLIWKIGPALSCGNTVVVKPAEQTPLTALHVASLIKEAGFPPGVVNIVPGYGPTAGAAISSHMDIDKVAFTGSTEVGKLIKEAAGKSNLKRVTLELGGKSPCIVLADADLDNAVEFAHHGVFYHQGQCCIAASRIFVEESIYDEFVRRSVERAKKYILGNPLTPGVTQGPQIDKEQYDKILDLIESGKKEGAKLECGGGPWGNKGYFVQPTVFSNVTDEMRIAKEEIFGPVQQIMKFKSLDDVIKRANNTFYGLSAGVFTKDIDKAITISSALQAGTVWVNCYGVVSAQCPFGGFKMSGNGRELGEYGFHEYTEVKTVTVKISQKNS
Source text: (§1) To validate our optimized assay, we assembled a set of 20 previously reported ALDH inhibitors, with varying degrees of target specificity (Table 1 and S4 Fig). […] Briefly, the assay measures the dehydrogenase activity of recombinant human ALDH1A1, ALDH1A2, ALDH1A3, ALDH2 or ALDH3A1 using NAD(P)^+ and either propionaldehyde or benzaldehyde as substrates. An orthogonal resorufin-based assay format was also run with isolated ALDH1A1 to rule out potential false positives due to intrinsic compound fluorescence.
(§2) Human ALDH1A1 and ALDH3A1 were expressed and purified as described elsewhere. Human ALDH2 was purchased from Abcam (ab87415). Human ALDH1A2 and ALDH1A3 were purchased from MyBioSource (MBS1005929; San Diego, CA) and ThermoFisher (11636H07E50), respectively. The inhibitory activity of compounds against ALDHs was measured according to protocols described previously. Briefly, 3 μL of enzyme (final concentrations of 20 nM for ALDH1A1, 50 nM for ALDH1A2, 50 nM for ALDH1A3, 75 nM for ALDH2 and 5 nM for ALDH3A1) in assay buffer (100 mM HEPES pH 7.5 with 0.01% Tween 20) were dispensed into a 1,536-well solid-bottom black plate (Greiner Bio One, Monroe, NC). […] Samples were incubated (room temperature, protected from light) for 15 minutes followed by a 1 μL substrate addition of NAD^+ and Propionaldehyde (final concentrations of 1 mM and 80 μM, respectively) for ALDH1A1, 1A2, 1A3, and ALDH2 or NADP^+ and benzaldehyde (final concentrations of 1 mM and 200 μM, respectively) for ALDH3A1. Plates were centrifuged at 1,000 rpm for 15 seconds, then read in kinetic mode on a ViewLux High-throughput CCD imager (PerkinElmer, Waltham, MA) equipped with standard UV fluorescence optics (340 nm excitation, 450 nm emission) for 5 (ALDH1A1, ALDH1A2, ALDH2, ALDH3A1) or 30 (ALDH1A3) minutes. The change in fluorescence intensity over the 5- or 30-minute reaction period was normalized against no-inhibitor and no-enzyme controls and the resulting percent inhibition data were fitted to a 4-parameter Hill equation. Bay-11 7085 was used as intraplate control. To account for artifacts due to intrinsic compound fluorescence in the above spectrum, compounds were also tested in an orthogonal resorufin assay format with optics of excitation 525 nm/emission 598 nm as described before. The same parameters as the NADH assay were used for the resorufin assay, with the addition of (final) 133 μg/mL diaphorase and 37 μM resazurin to the assay solution. Same controls were used in both formats.

Human ALDH1A3 = target: T2, Human ALDH1A3 (Homo sapiens, UniProt P47895); assay: 1,536-well enzymatic assay (NADH fluorescence), ALDH1A3; assay type: biochemical
T2 construct: purchased ThermoFisher 11636H07E50
T2 sequence (P47895 1-512): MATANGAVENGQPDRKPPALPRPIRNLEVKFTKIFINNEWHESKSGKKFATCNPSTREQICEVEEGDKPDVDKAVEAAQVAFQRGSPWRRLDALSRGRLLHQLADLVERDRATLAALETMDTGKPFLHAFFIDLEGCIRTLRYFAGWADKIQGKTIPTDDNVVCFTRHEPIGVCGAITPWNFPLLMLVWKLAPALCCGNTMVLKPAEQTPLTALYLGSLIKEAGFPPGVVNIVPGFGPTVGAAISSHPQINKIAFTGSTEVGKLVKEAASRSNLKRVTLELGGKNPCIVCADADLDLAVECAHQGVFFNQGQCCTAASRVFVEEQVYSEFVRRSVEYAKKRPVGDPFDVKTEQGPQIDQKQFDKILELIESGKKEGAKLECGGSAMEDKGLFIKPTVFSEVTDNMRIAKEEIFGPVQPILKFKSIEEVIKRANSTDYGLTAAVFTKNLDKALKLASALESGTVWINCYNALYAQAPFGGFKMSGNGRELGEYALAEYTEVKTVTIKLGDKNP
Source text: as §1, §2

Human ALDH2 = target: T3, Human ALDH2 (Homo sapiens, UniProt P05091); assay: 1,536-well enzymatic assay (NADH fluorescence), ALDH2; assay type: biochemical
T3 construct: purchased Abcam ab87415
T3 sequence (P05091 18-517): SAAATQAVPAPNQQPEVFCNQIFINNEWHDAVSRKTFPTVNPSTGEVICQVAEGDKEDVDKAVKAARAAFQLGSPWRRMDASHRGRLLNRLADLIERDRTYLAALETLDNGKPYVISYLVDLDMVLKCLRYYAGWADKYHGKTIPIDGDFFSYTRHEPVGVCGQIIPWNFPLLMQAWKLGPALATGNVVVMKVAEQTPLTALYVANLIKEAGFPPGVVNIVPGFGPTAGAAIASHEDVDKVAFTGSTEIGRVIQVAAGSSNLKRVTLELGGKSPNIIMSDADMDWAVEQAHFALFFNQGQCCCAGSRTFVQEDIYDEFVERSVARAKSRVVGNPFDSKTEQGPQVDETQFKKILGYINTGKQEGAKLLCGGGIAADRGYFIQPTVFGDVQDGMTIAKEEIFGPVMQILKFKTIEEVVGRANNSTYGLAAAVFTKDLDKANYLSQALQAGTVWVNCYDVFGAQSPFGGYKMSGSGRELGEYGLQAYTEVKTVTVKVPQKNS
Source text: as §1, §2

ALDH1A1 = conditions: reported ALDH target 1A1; read-out: Reported Biochemical IC50, ALDH1A1; cited from earlier work
[1] = validation set, 20 nM enzyme, NAD+ and propionaldehyde, read-out: Biochemical IC50 ALDH1A1
[2] = validation set, 50 nM enzyme, NAD+ and propionaldehyde, read-out: Biochemical IC50 ALDH1A3
[3] = validation set, 75 nM enzyme, NAD+ and propionaldehyde, read-out: Biochemical IC50 ALDH2
[4] = hits of dual cell-based screen (Table 2), read-out: Biochemical IC50 ALDH1A1
[5] = hits of dual cell-based screen (Table 2), read-out: Biochemical IC50 ALDH1A3

COc1ccc(C(=O)CCN(C)C)cc1F [Aldi-2]
IC50 (Human ALDH1A1; [1]): 0.15 µM | IC50 (Human ALDH1A3; [2]): 0.24 µM | IC50 (Human ALDH2; [3]): 0.1 µM | IC50 (ALDH1A1): 2.5 µM

Cc1nc2ccccc2n1S(=O)(=O)c1ccc(F)cc1 [CB7]
IC50 (Human ALDH1A3; [2]): 12.1 µM | IC50 (Human ALDH2; [3]): 19.1 µM

COc1cccc2cc(C(=O)CC3(O)C(=O)N(Cc4ccccc4)c4ccccc43)c(=O)oc12 (stereo not drawn) [CID 2929292]
IC50 (Human ALDH1A1; [1]): 0.29 µM | IC50 (Human ALDH1A3; [2]): 24.1 µM | IC50 (Human ALDH2; [3]): 9.59 µM | IC50 (ALDH1A1): 0.09 µM

CC(C)=CCCC(C)=CC=O (mixture of isomers) [Citral]
IC50 (Human ALDH1A1; [1]): 10.8 µM | IC50 (Human ALDH1A3; [2]): 2.7 µM | IC50 (Human ALDH2; [3]): 4.28 µM

Cc1cc2c(C(C)C)c(O)c(O)c(C=O)c2c(O)c1-c1c(C)cc2c(C(C)C)c(O)c(O)c(C=O)c2c1O [Gossypol]
IC50 (Human ALDH1A1; Biochemical IC50 ALDH1A1, validation set, 20 nM enzyme, NAD+ and propionaldehyde): 25.6 µM | IC50 (Human ALDH1A3): 8.55 µM | IC50 (Human ALDH2): 24.1 µM | IC50 (ALDH1A1): 75 µM

CVT-10216
IC50 (Human ALDH1A1; [1]): 19.1 µM | IC50 (Human ALDH1A3; [2]): 27 µM | IC50 (Human ALDH2; [3]): 1.21 µM | IC50 (ALDH1A1): 1.3 µM

CC(C)(C)c1ccc(S(=O)(=O)/C=C/C#N)cc1 [Bay-11-7085]
IC50 (Human ALDH1A1; [1]): 0.09 µM | IC50 (Human ALDH1A3; [2]): 0.68 µM | IC50 (Human ALDH2; [3]): 0.05 µM | IC50 (ALDH1A1): 0.074 µM

C[S+](=O)([O-])c1ccc(Cn2c3c(c4cc(F)cc(F)c42)CCCC3CC(=O)O)cc1 [L-670596]
IC50 (Human ALDH1A1; [4]): 0.25 µM | IC50 (Human ALDH1A3; [5]): 35.5 µM

CC(C)N(C(=O)CCl)c1ccccc1 [Propachlor]
IC50 (Human ALDH1A1; [4]): 0.01 µM | IC50 (Human ALDH1A3; [5]): 5.62 µM | IC50 (Human ALDH2; hits of dual cell-based screen (Table 2), read-out: Biochemical IC50 ALDH2): 12.6 µM

CCOc1ccc(NCC(=O)Nc2ccc(Cl)cc2C)cc1 [CID 725345]
IC50 (Human ALDH1A1; [1]): 0.77 µM | IC50 (Human ALDH1A3; [2]): 3.82 µM | IC50 (Human ALDH2; [3]): 2.15 µM | IC50 (ALDH1A1): 3.5 µM

O=c1c(-c2ccc(O)cc2)coc2cc(O[C@@H]3O[C@H](CO)[C@@H](O)[C@H](O)[C@H]3O)ccc12 [Daidzin]
IC50 (Human ALDH1A3): 24.1 µM

CCN(CC)C(=S)SSC(=S)N(CC)CC [Disulfiram]
IC50 (Human ALDH1A3; [2]): 0.68 µM | IC50 (ALDH1A1): 0.15 µM

CCN(CC)c1ccc(C=O)cc1 [DEAB, 4-N,N-diethylaminobenzaldehyde]
IC50 (Human ALDH1A3; [2]): 24.1 µM

O=C1Nc2ccccc2C1=O [indoline-2,3-dione]
IC50 (Human ALDH1A1; [1]): 0.01 µM | IC50 (Human ALDH1A3; [2]): 7.62 µM | IC50 (Human ALDH2; [3]): 21.5 µM | IC50 (ALDH1A1): 0.02 µM

Nc1ccccc1C(=O)CC(N)C(=O)O (stereo not drawn) [Kynurenine]
IC50 (Human ALDH1A1; [1]): 40.5 µM | IC50 (Human ALDH1A3; [2]): 27 µM

C#CCN(C)Cc1ccccc1 [Pargyline]
IC50 (Human ALDH1A3; [2]): 17 µM
